Reference: PMC8162404, “Proteomimetic surface fragments distinguish targets by function” (Chemical Science, 2020)
pKd: −log10 of the molar value.

Legend:
Gal-1 [1] = biological target: T1, Gal-1 (Homo sapiens, UniProt P09382); assay: Competition pull-down with lactose; format: binding; details: H14 library; lactose 10 mM; read-out: Surface mapping KD (apparent), competition
T1 construct: made in house; host or cells: E. coli BL21(DE3)
Protocol: Interactions between the H14 helical LSMs and the targets were abundant, but safe recognition of the native PPI interfaces on the targets is a criterion of druggability. To gain insight into the ability of the LSMs to detect orthosteric spots, we carried out pull-down assays in the presence of the native ligands (Table 2) of the targets (Fig. 5). For highlighting the effect of the competitor on the binding fingerprints, KD ratios and the LSM replacement percentages were calculated and are represented as heat maps (see ESI, Fig. S7 ^†). […] This could be explained by the glycan selective native recognition domain of the protein. We note that the replacement pattern for a single probe can, in theory, be complex. […] Moreover, a single probe can bind to both orthosteric and non-orthosteric spots, which limits overall displacement levels. To avoid overlooking interesting orthosteric weak binders, direct replacement levels were assessed (see ESI, Fig. S7 ^†).
Pull-down assay and data analysis
Pull-down assay. LSM sublibraries were screened separately as previously described.(2) Experiments were performed in the following buffers: (i) 20 mM pH 7.4 HEPES, 150 mM NaCl, 5 mM CaCl2 for CaM; (ii) 50 mM pH 7.4 HEPES, 150 mM NaCl, 1 mM TCEP, 1 mM CaCl2 for S100 proteins; (iii) 20 mM pH 7.4 HEPES, 150 mM NaCl, 1 mM TCEP for Gal-1 and (iv) 20 mM pH 7.4 HEPES, 150 mM NaCl for RecQ-WH. Assays were performed in paper filter spin cups (Thermo Scientific) with sample volumes of 100 µl. Hexahistidine-tagged proteins were immobilized on previously washed Co-NTA resin (TALON, Takara Bio USA, Inc., Mountain View, CA) in 64 µM final concentration. LSM sublibrary was added, in which each of the 64 library members were used at a concentration of 1 µM. Samples were incubated at room temperature for 30 min with shaking at 100 rpm. Then, samples were centrifuged at 1000 rpm for 2 min and washed with 100 µl pull-down buffer to remove unbound compounds.
The control experiments were performed using the same compounds and the resin but without the immobilized protein. In case of competitive assays, competitor peptides were added to LSM sublibrary samples in 200 µM final concentration. In the case of Gal-1, lactose (competitor) was used in a concentration of 10 mM. Experiments were performed at least twice. Mean […]
LC-MS methods and parameters. HPLC/ESI-MS analysis was used to characterize the samples from the pull-down assay. LC-MS analysis was performed with a Thermo Scientific Dionex UltiMate 3000 HPLC system interfaced to an LTQ ion trap mass spectrometer (Thermo Electron Corp., San Jose, CA, USA). Samples were injected onto an Aeris Widepore XB-C18 (250 x 4.6 mm) analytical HPLC column using gradient elution 5-80 % solution B during 25 minutes. For pull-down samples, eluent composition was 0.1% acetic acid in distilled water (Solution A) and 0.1% acetic acid in acetonitrile (solution B). Mass spectra were acquired in full scan mode from 200 to 2000 m/z range. For overlapping peaks, selective reaction monitoring (SRM) was […]
MS data analysis. Thermo Xcalibur 2.2 software was used for peak identification and integration. The majority of the foldameric fragments could be resolved independently via HPLC-MS/MS measurements based on molecular weight, MS fragmentation pattern and retention time. Peaks of some foldamers with β3-hIle or β3-hLeu in position R2 could not be resolved, these were integrated and averaged. In the processing method, each sample component was associated to a chromatographic peak based on previously identified mass (m/z) and retention time (ref (2) and Table S7-10). Using ICIS peak detection algorithm, the general detection and integration criteria were: smoothing points: 5, baseline window: 80, area noise factor: 5, peak noise factor: 10. Using these processing setups, all raw data files were reprocessed together and analyzed. Errors in peak identification during the automatic processing were corrected manually.
Calculation of the discussed parameters […]

CaM [2] = biological target: T2, CaM (Bos taurus, UniProt P62157); assay: Competition pull-down with native ligand TRPV1-Ct15; format: binding, bovine; details: H14 library; competitor peptide 200 µM; read-out: Surface mapping KD (apparent), competition
T2 construct: made in house; host or cells: E. coli BL21 (DE3)

Gal-1 [3] = biological target: T1, Gal-1; assay: Pull-down assay with immobilized protein and LSM libraries; format: binding; details: H14 library; 1:1 binding assumed; read-out: Surface mapping KD (apparent)
Method in brief: (§1)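 Buffers were HEPES pH 7.4 with 150 mM NaCl, plus 1 mM TCEP and 1 mM CaCl2 (50 mM HEPES) for S100A4 and S100B, 1 mM TCEP for Gal-1, and no additive for RecQ-WH. Immobilized protein at 64 µM was equilibrated 30 min with the LSM sublibrary, and unbound probes were measured by LC-MS.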

CaM [4] = biological target: T2, CaM; assay: as above; format: binding, bovine; details: H14 library; 1:2 stoichiometry assumed; read-out: Surface mapping KD (apparent)
Method in brief: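 CaM buffer was 20 mM HEPES pH 7.4, 150 mM NaCl, 5 mM CaCl2. LSM sublibrary members ([…]) incubated 30 min, RT, with equimolar His-tagged protein on Co-NTA resin. HPLC-MS measured unbound probes; bound fraction relative to resin-only background gave dissociation constants.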

S100A4 = biological target: T3, S100A4 (Homo sapiens, UniProt P26447); assay: as above; format: binding; details: for pKd: H14 library, 1:1 binding assumed, read-out: Surface mapping KD (apparent)
T3 construct: made in house; host or cells: Escherichia coli BL21(DE3)
Method in brief: as §1

S100B = biological target: T4, S100B (Homo sapiens, UniProt P04271); assay: as above; format: binding; details: for pKd: H14 library, 1:1 binding assumed, read-out: Surface mapping KD (apparent)
T4 construct: made in house; host or cells: Escherichia coli BL21(DE3)
T4 sequence (P04271 1-92): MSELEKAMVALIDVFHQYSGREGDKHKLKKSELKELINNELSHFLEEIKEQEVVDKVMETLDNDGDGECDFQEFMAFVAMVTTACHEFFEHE
Method in brief: as §1

[5] = H14 probes selected for validation

T1 sequence (P09382 whole entry): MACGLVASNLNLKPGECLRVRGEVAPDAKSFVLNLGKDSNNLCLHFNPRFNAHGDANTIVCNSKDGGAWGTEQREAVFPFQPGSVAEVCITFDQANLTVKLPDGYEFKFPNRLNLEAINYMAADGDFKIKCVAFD
T3 sequence (P26447 whole entry): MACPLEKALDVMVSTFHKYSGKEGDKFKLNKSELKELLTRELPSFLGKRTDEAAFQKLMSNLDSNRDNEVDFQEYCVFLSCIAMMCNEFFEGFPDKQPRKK

| Structure (SMILES) | pKd (Gal-1 [1]) | pKd (CaM [2]) | pKd (Gal-1 [3]) | pKd (CaM [4]) | pKd (S100A4) | Binding (S100A4; H14 probes) | Affinity class of probe (high, medium, low) in pull-down (S100A4; [5]) | Binding (S100B; H14 probes) | Affinity class of probe (high, medium, low) in pull-down (S100B; [5]) | pKd (S100B) |
| --- | --- | --- | --- | --- | --- | --- | --- | --- | --- | --- |
| NC(=O)C[C@@H](CC(=O)N[C@H]1CCCC[C@@H]1C(=O)N[C@H]1CCCC[C@@H]1C(=O)N[C@@H](CO)CC(=O)N[C@H]1CCCC[C@@H]1C(N)=O)NC(=O)[C@H]1CCCC[C@@H]1N [H14 NS] | 3.37 | 3.55 | 3.51 | 3.74 |  |  |  |  |  |  |
| NC(=O)CC[C@@H](CC(=O)N[C@H]1CCCC[C@@H]1C(=O)N[C@H]1CCCC[C@@H]1C(=O)N[C@@H](CCC(=O)O)CC(=O)N[C@H]1CCCC[C@@H]1C(N)=O)NC(=O)[C@H]1CCCC[C@@H]1N [H14 QE] | 3.42 | 3.61 | 3.53 | 3.66 |  |  |  |  |  |  |
| NC(=O)CC[C@@H](CC(=O)N[C@H]1CCCC[C@@H]1C(=O)N[C@H]1CCCC[C@@H]1C(=O)N[C@@H](CO)CC(=O)N[C@H]1CCCC[C@@H]1C(N)=O)NC(=O)[C@H]1CCCC[C@@H]1N [H14 QS] | 3.30 | 3.47 | 3.46 | 3.73 |  |  |  |  |  |  |
| C[C@@H](O)[C@@H](CC(=O)N[C@H]1CCCC[C@@H]1C(N)=O)NC(=O)[C@H]1CCCC[C@@H]1NC(=O)[C@H]1CCCC[C@@H]1NC(=O)C[C@H](CC(N)=O)NC(=O)[C@H]1CCCC[C@@H]1N [H14 NT] | 3.30 | 3.47 | 3.46 | 3.73 |  |  |  |  |  |  |
| NC(=O)C[C@@H](CC(=O)N[C@H]1CCCC[C@@H]1C(N)=O)NC(=O)[C@H]1CCCC[C@@H]1NC(=O)[C@H]1CCCC[C@@H]1NC(=O)C[C@H](CO)NC(=O)[C@H]1CCCC[C@@H]1N [H14 SN] | 3.37 | 3.55 | 3.51 | 3.74 |  |  |  |  |  |  |
| NCCCC[C@@H](CC(=O)N[C@H]1CCCC[C@@H]1C(=O)N[C@H]1CCCC[C@@H]1C(=O)N[C@@H](CC(=O)O)CC(=O)N[C@H]1CCCC[C@@H]1C(N)=O)NC(=O)[C@H]1CCCC[C@@H]1N [H14 KD] | 3.54 | 3.44 |  |  |  |  |  |  |  |  |
| CSCC[C@@H](CC(=O)N[C@H]1CCCC[C@@H]1C(N)=O)NC(=O)[C@H]1CCCC[C@@H]1NC(=O)[C@H]1CCCC[C@@H]1NC(=O)C[C@H](CC(N)=O)NC(=O)[C@H]1CCCC[C@@H]1N [H14 NM] | 3.39 | 3.34 | 3.46 | 4.30 |  |  |  |  |  |  |
| NC(=O)[C@H]1CCCC[C@@H]1NC(=O)C[C@H](CCC(=O)O)NC(=O)[C@H]1CCCC[C@@H]1NC(=O)[C@H]1CCCC[C@@H]1NC(=O)C[C@H](CO)NC(=O)[C@H]1CCCC[C@@H]1N [H14 SE] | 3.38 | 3.63 | 3.49 | 3.63 |  |  |  |  |  |  |
| CC(C)[C@@H](CC(=O)N[C@H]1CCCC[C@@H]1C(N)=O)NC(=O)[C@H]1CCCC[C@@H]1NC(=O)[C@H]1CCCC[C@@H]1NC(=O)C[C@H](CCC(N)=O)NC(=O)[C@H]1CCCC[C@@H]1N [H14 QV] | 3.43 | 3.64 | 3.46 | 4.03 |  |  |  |  |  |  |
| CC(C)[C@@H](CC(=O)N[C@H]1CCCC[C@@H]1C(N)=O)NC(=O)[C@H]1CCCC[C@@H]1NC(=O)[C@H]1CCCC[C@@H]1NC(=O)C[C@H](CCC(=O)O)NC(=O)[C@H]1CCCC[C@@H]1N [H14 EV] | 3.52 | 3.31 |  |  |  |  |  |  |  |  |
| C[C@@H](CC(=O)N[C@H]1CCCC[C@@H]1C(N)=O)NC(=O)[C@H]1CCCC[C@@H]1NC(=O)[C@H]1CCCC[C@@H]1NC(=O)C[C@H](CO)NC(=O)[C@H]1CCCC[C@@H]1N [H14 SA] | 3.36 | 3.44 | 3.41 | 3.42 |  |  |  |  |  |  |
| NC(=O)CC[C@@H](CC(=O)N[C@H]1CCCC[C@@H]1C(N)=O)NC(=O)[C@H]1CCCC[C@@H]1NC(=O)[C@H]1CCCC[C@@H]1NC(=O)C[C@H](CCC(N)=O)NC(=O)[C@H]1CCCC[C@@H]1N [H14 QQ] | 3.33 | 3.53 | 3.56 | 3.73 |  |  |  |  |  |  |
| CSCC[C@@H](CC(=O)N[C@H]1CCCC[C@@H]1C(N)=O)NC(=O)[C@H]1CCCC[C@@H]1NC(=O)[C@H]1CCCC[C@@H]1NC(=O)C[C@@H](NC(=O)[C@H]1CCCC[C@@H]1N)[C@@H](C)O [H14 TM] |  | 3.95 |  | 4.34 | 4.89 | binds | high | does not | low |  |
| C[C@@H](CC(=O)N[C@H]1CCCC[C@@H]1C(N)=O)NC(=O)[C@H]1CCCC[C@@H]1NC(=O)[C@H]1CCCC[C@@H]1NC(=O)C[C@H](CCC(N)=O)NC(=O)[C@H]1CCCC[C@@H]1N [H14 QA] | 3.35 | 3.68 | 3.46 | 3.76 |  |  |  |  |  |  |
| C[C@@H](O)[C@@H](CC(=O)N[C@H]1CCCC[C@@H]1C(N)=O)NC(=O)[C@H]1CCCC[C@@H]1NC(=O)[C@H]1CCCC[C@@H]1NC(=O)C[C@@H](NC(=O)[C@H]1CCCC[C@@H]1N)[C@@H](C)O [H14 TT] | 3.37 | 3.38 | 3.44 | 3.60 |  |  |  |  |  |  |
| C[C@@H](O)[C@@H](CC(=O)N[C@H]1CCCC[C@@H]1C(=O)N[C@H]1CCCC[C@@H]1C(=O)N[C@@H](CC(=O)O)CC(=O)N[C@H]1CCCC[C@@H]1C(N)=O)NC(=O)[C@H]1CCCC[C@@H]1N [H14 TD] | 3.38 | 3.63 | 3.49 | 3.50 |  |  |  |  |  |  |
| CC(C)[C@@H](CC(=O)N[C@H]1CCCC[C@@H]1C(N)=O)NC(=O)[C@H]1CCCC[C@@H]1NC(=O)[C@H]1CCCC[C@@H]1NC(=O)C[C@@H](NC(=O)[C@H]1CCCC[C@@H]1N)[C@@H](C)O [H14 TV] | 3.37 | 3.42 | 3.40 | 3.95 |  |  |  |  |  |  |
| NCCCC[C@@H](CC(=O)N[C@H]1CCCC[C@@H]1C(=O)N[C@H]1CCCC[C@@H]1C(=O)N[C@H](CC(=O)N[C@H]1CCCC[C@@H]1C(N)=O)Cc1ccccc1)NC(=O)[C@H]1CCCC[C@@H]1N [H14 KF] |  | 3.47 |  | 5.10 | 3.99 |  |  |  |  | 4.59 |
| NC(=O)C[C@@H](CC(=O)N[C@H]1CCCC[C@@H]1C(N)=O)NC(=O)[C@H]1CCCC[C@@H]1NC(=O)[C@H]1CCCC[C@@H]1NC(=O)C[C@H](Cc1c[nH]c2ccccc12)NC(=O)[C@H]1CCCC[C@@H]1N [H14 WN] |  | 3.53 |  | 4.85 | 3.65 |  |  |  |  | 3.77 |
